Measured values: US9732101B2, “Bioreversible boronates for delivery of molecules into cells” (WISCONSIN ALUMNI RESEARCH FOUNDATION, priority 2012, dated 2017)
Read-outs that look alike come from different tables or passages of the source.

Tests used:
[1] = Ka of boronic acids for saccharides by 1H NMR (H2O containing 2% D2O); format: binding; settings: 1H NMR in H2O containing D2O (2% v/v), 0.10M sodium phosphate buffer, pH 7.4, this work
Experimental: (§1) Methodology to determine the values of Ka for boronic acids and saccharides was adapted from work by Hall and coworkers. [13a, 13b]
(§2) A boronic acid (B) and a saccharide (S) were assumed to bind in one modality, B·S:
(§3) The [B·S]/[B] ratio was determined by the integration of aryl protons of the boronic acid.saccharide complex and the free boronic acid. The individual [B], [B·S], and [S] can be calculated from eq. 1-3.
(§4) Each value of Ka arose from at least two independent experiments with freshly prepared solutions, and each experiment consisted of a titration with 6-9 different concentrations.
All NMR spectra were analyzed with Topspin 3.0 software from Bruker AXS. NMR experiments were done in a 0.10 M NaH2PO4 buffer, pH 7.4, containing D2O (2% v/v). ^1H NMR experiments consisted of the first increment of a 2D NOSY with gradients for improved water suppression.
A. Representative Procedure for Making a Phenylboronic Acid Solution NaH2PO4 (3.0 g, 25 mmol) and PBA (phenylboronic acid, 458 mg, 3.75 mmol) were dissolved in distilled, deionized water in a volumetric flask (˜200 mL H2O, 5 mL D2O). The pH was adjusted carefully to 7.4 using 10 M NaOH, and additional water was added for a final volume of 250 mL. Final solutions were 15 mM in the boronic acid (PBA=solution 1; benzoboroxole=solution 2) in 0.10 M sodium phosphate monobasic buffer, pH 7.4, containing D2O (2% v/v).
To a 25-mL volumetric flask, D-fructose (674 mg, 3.75 mmol) and ˜20 mL of solution 1 was added. The solution was adjusted carefully to pH 7.4 by the addition of 10 M NaOH. (The volume of added NaOH was used in the calculation of the boronic acid concentration.) The volume was then increased to 25 mL by adding solution 1. […] The [B·S]/[B] ratio was determined for every concentration as follows. […]
To a 25-mL volumetric flask, D-fructose (674 mg, 3.75 mmol) and ˜20 mL of solution 2 was added. […] The [B·S]/[B] ratio was determined as depicted in FIG. 14. A value for Ka was calculated for every concentration as described above.

[2] = as above; format: binding; settings: 1H NMR in H2O containing D2O (2% v/v); 0.10M sodium phosphate buffer, pH 7.4; this work
Experimental: as §1, §2, §3, §4
(§5) All NMR spectra were analyzed with Topspin 3.0 software from Bruker AXS. NMR experiments were done in a 0.10 M NaH2PO4 buffer, pH 7.4, containing D2O (2% v/v). ^1H NMR experiments consisted of the first increment of a 2D NOSY with gradients for improved water suppression. […]
To a […] volumetric flask, Neu5Ac (1.53 g, 5.0 mmol) and ˜20 mL of solution 1 was added. […] The [B·S]/[B] ratio was determined as depicted in FIG. 17. A value for Ka was calculated for every concentration as described above.
To a […] volumetric flask, Neu5Ac (1.56 g, […]) and ˜20 mL of solution 2 was added. […] The Ka value was calculated for every concentration as previously described. The [B·S]/[B] ratio was determined as illustrated in FIGS. 18 and 19. […] A value for Ka was calculated for every concentration as described above.

[3] = as above; format: binding; settings: 1H NMR in H2O containing D2O (2% v/v); 0.10M sodium phosphate buffer, pH 7.4; this work; remark: listed apart in the source
Experimental: as §1, §2, §3, §4, §5
To a 25-mL volumetric flask, D-glucose (2.25 g, 12.5 mmol) and ˜20 mL of solution 1 was added. […] The [B·S]/[B] ratio was determined as depicted in FIG. 15. A value for Ka was calculated for every concentration as described above.
To a 25-mL volumetric flask, D-glucose (2.25 g, 12.5 mmol) and ˜20 mL of solution 2 was added. […] The [B·S]/[B] ratio was determined as depicted in FIG. 16. […] A value for Ka was calculated for every concentration as described above.

[4] = 1H NMR in D2O (100% v/v); 0.10M sodium phosphate buffer, pH 7.4; ref [c]; cited from earlier work
[5] = ref 13b; cited from earlier work
[6] = Competition with alizarin red S; 0.10M sodium phosphate buffer, pH 7.4; refs [b], [e]; cited from earlier work
[7] = 1H NMR in D2O (100% v/v); 0.10M sodium phosphate buffer, pH 7.4; ref [c]; cited from earlier work; remark: listed apart in the source
[8] = 11B NMR in H2O/D2O/MeOH mixture; ref [d]; cited from earlier work
[9] = Competition with alizarin red S; 0.10M sodium phosphate buffer, pH 7.4; ref [b]; cited from earlier work
[10] = Competition with alizarin red S; 0.10M sodium phosphate buffer, pH 7.4; ref [b]; cited from earlier work; remark: listed apart in the source

SMILES	Ka for D-fructose [1]	Ka for D-fructose ([1]; listed as benzoxaborole)	Ka for Neu5Ac [2]	Ka for D-glucose [3]	Ka for D-fructose [4]	pKa of the HOB [5]	Ka for D-glucose [6]	Ka for D-glucose [7]	Ka for Neu5Ac [8]	Ka for D-fructose [9]	Ka for Neu5Ac [10]
OCc1ccccc1B(O)O [Benzoboroxole, 2-hydroxymethylphenylboronic acid]	336 ± 43 M⁻¹	336 M⁻¹	43 ± 5 M⁻¹	28 ± 4 M⁻¹	606 M⁻¹	7.2	31 M⁻¹	17 M⁻¹			
OB(O)c1ccccc1 [PBA, Phenylboronic acid]	128 ± 20 M⁻¹		13 ± 1 M⁻¹	5 ± 1 M⁻¹	79 M⁻¹		4.6 M⁻¹	0 M⁻¹	11.6 ± 1.9 M⁻¹	160 M⁻¹	21 M⁻¹
